Results published in patent US10278975B2, “Serine/threonine kinase inhibitors” (GENENTECH, INC., priority 2013, dated 2019).

Tested on: PMA-stimulated P90RSK(Ser380) phosphorylation in HepG2 cells
Test: Cellular P90RSK(Ser380) Phosphorylation Assay
Format: cell-based
Conditions: Homo sapiens, 1.5 hour compound incubation, PMA 100 ng/mL 30 min, normalized to GAPDH, read-out: P-P90RSK (S380) IC50
Procedure: Cellular P90RSK(Ser380) Phosphorylation Assay
Inhibition of PMA-stimulated P90RSK(Ser380) phosphorylation was determined by the following in vitro cellular mechanistic assay, which comprises incubating cells with a compound for 1.5 hours and quantifying fluorescent pP90RSK(Ser380) signal on fixed cells and normalizing to GAPDH signal.
Materials and Methods: HepG2 cells were obtained from ATCC and grown in DMEM supplemented with 10% fetal bovine serum. Cells were plated in 96-well plates at 35,000 cells/well and allowed to attach overnight at 37° C./5% CO2. Diluted compounds were then added at a final concentration of 0.5% DMSO. After 1.5 hour compound incubation, cells were stimulated with the addition of PMA (phorbol 12-myristate 13-acetate) at a final concentration of 100 ng/mL; the PMA stimulation was a 30-minute incubation at 37° C./5% CO2. After the 30-minute PMA stimulation, cells were washed with PBS and fixed in 3.7% formaldehyde in PBS at room temperature for 15-20 minutes. This was followed by another wash in PBS and then permeabilization in 100% MeOH at room temperature for 10-15 minutes. Following the permeabilization incubation, cells were washed in PBS/0.05% Tween-20, followed by a block in Odyssey blocking buffer (LI-COR Biosciences) for at least 1 hour. Antibodies to phosphorylated P90RSK(Ser380) (Cell Signaling #9335, rabbit monoclonal) and GAPDH (Fitzgerald 10R-G109a, mouse monoclonal) were added to the cells and incubated overnight at 4° C. pP90RSK(Ser380) antibody was used at a 1:250 dilution; GAPDH was used at a 1:10,000 dilution. After washing with PBS/0.05% Tween-20, the cells were incubated with fluorescently-labeled secondary antibodies (Anti-rabbit-Alexa Flour680, Invitrogen Cat#A21109; Anti-mouse-IRDye800CW, Rockland Inc. Cat#610-131-121) for 1 hour. Both secondary antibodies were used at a 1:1000 dilution. Cells were then washed and analyzed for fluorescence at both wavelengths using the Odyssey Infrared Imaging System (LI-COR Biosciences). Phosphorylated P90RSK(Ser380) signal was normalized to GAPDH signal. Representative date is in TABLE II (infra).

Row | Structure (SMILES) | IC50 [nM]
1 | Cn1nccc1Nc1nccc(-c2cc3n4c(nnc4c2)[C@@H](Cc2ccccc2)CO3)n1 [(R) I-15, 4-(3-benzyl-3,4-dihydro-5-oxa-1,2,2a^1-triazaacenaphthylen-7-yl)-N-(1-methyl-1H-pyrazol-5-yl)pyrimidin-2-amine] | 2.91
2 | Cn1nccc1Nc1cc(-c2cc3n4c(nnc4c2)[C@@H](Cc2ccc(Cl)cc2)CO3)ccn1 [(R) I-48, 4-(3-(4-chlorobenzyl)-3,4-dihydro-5-oxa-1,2,2a^1-triazaacenaphthylen-7-yl)-N-(1-methyl-1H-pyrazol-5-yl)pyridin-2-amine] | 1.73
3 | Cn1nccc1Nc1nccc(-c2cc3n4c(nnc4c2)[C@H](Oc2ccc(F)cc2)CCO3)n1 [(R) I-66, 4-(9-(4-fluorophenoxy)-8,9-dihydro-7H-6-oxa-1,2,2a^1-triazabenzo[cd]azulen-4-yl)-N-(1-methyl-1H-pyrazol-5-yl)pyrimidin-2-amine] | 1
4 | Cn1nccc1Nc1nccc(-c2cc3n4c(nnc4c2)[C@@H](Cn2cc(C(F)(F)F)cn2)CCO3)n1 [(R) I-73, N-(1-methyl-1H-pyrazol-5-yl)-4-(9-((4-(trifluoromethyl)-1H-pyrazol-1-yl)methyl)-8,9-dihydro-7H-6-oxa-1,2,2a^1-triazabenzo[cd]azulen-4-yl)pyrimidin-2-amine] | 4.47
5 | Cn1nccc1Nc1cc(-c2cc3n4c(nnc4c2)[C@@H](Cc2ccccc2)CN3)ccn1 [(S) I-7, 4-(3-benzyl-4,5-dihydro-3H-1,2,2a^1,5-tetraazaacenaaphthylen-7-yl)-N-(1-methyl-1H-pyrazol-5-yl)pyridin-2-amine] | 3.87
6 | Cn1nccc1Nc1nccc(-c2cc3n4c(nnc4c2)[C@@H](Cc2ccc(F)cc2)CN3)n1 [(S) I-21, 4-(3-(4-fluorobenzyl)-4,5-dihydro-3H-1,2,2a^1,5-tetraazaacenaphthylen-7-yl)-N-(1-methyl-1H-pyrazol-5-yl)pyrimidin-2-amine] | 4.32
7 | CN1C(=O)C[C@H](Cc2ccc(Cl)cc2)c2nnc3cc(-c4ccnc(Nc5ccnn5C)n4)cc1n23 [(S) I-22, 9-(4-chlorobenzyl)-6-methyl-4-(2-((1-methyl-1H-pyrazol-5-yl)amino)pyrimidin-4-yl)-8,9-dihydro-1,2,2a^1,6-tetraazabenzo[cd]azulen-7(6H)-one] | 1.41
8 | Cn1nccc1Nc1nccc(-c2cc3n4c(nnc4c2)[C@@H](COCc2ccccc2)CCO3)n1 [(S) I-29, 4-(9-((benzyloxy)methyl)-8,9-dihydro-7H-6-oxa-1,2,2a^1-triazabenzo[cd]azulen-4-yl)-N-(1-methyl-1H-pyrazol-5-yl)pyrimidin-2-amine] | 7.94
9 | Cn1nccc1Nc1nccc(-c2cc3n4c(nnc4c2)[C@@H](Cc2ccc(Cl)cc2)CCO3)n1 [(S) I-36, 4-(9-(4-chlorobenzyl)-8,9-dihydro-7H-6-oxa-1,2,2a^1-triazabenzo[cd]azulen-4-yl)-N-(1-methyl-1H-pyrazol-5-yl)pyrimidin-2-amine] | 2.45
10 | CN1C(=O)N(Cc2ccccc2)c2nnc3cc(-c4ccnc(Nc5ccnn5C)n4)cc1n23 [Compound I-28, 3-benzyl-5-methyl-7-(2-((1-methyl-1H-pyrazol-5-yl)amino)pyrimidin-4-yl)-3H-1,2,2a^1,3,5-pentaazaacenaphthylen-4(5H)-one] | 5.05
